Measured values published in US11021686B2, “In vitro production of cholangiocytes” (CAMBRIDGE ENTERPRISE LIMITED, priority 2015, dated 2021).
Entries after “also recorded” stand apart in the source; their conditions may differ.

Legend:
CLC organoids = assay: Measurement of intracellular calcium levels (Fluo-4) in CLC organoids; type: cell-based, human; details: 1 μM Acetylcholine or 30 μM ATP
Method: Intracellular calcium signaling, regulated by stimuli such as acetylcholine and ATP constitutes a key second messenger for cholangiocytes (18). CLC organoids were incubated with 25 μM of the calcium indicator Fluo-4 AM (Life technologies) for 60 minutes at 37° C. and washed 3 times with William's E medium. Fresh William's E medium with supplements was added following the third wash. The organoids were stimulated with 1 μM of Acetylcholine (Sigma-Aldrich) or 30 μM of ATP (Sigma-Aldrich), while time lapse images were taken. Each measurement was repeated in triplicate. To calculate the number of cells responding to stimulation, the number of cells loaded with Fluo-4 AM was counted by 2 different researchers prior to the start of the experiment. Following stimulation with ATP or acetylcholine the number of responding cells (increase in fluorescence) was also counted and responsiveness was expressed as the ratio of responding cells over the total number of cells loaded with Fluo-4 AM. The statistical approach for smoothing the data and plotting bands for the confidence limits please see ‘Statistical analyses’.

hESC-Chol = details: Dianat et al (6); cited from earlier work

Question: With `Nc1ncnc2c1ncn2[C@@H]1O[C@H](COP(=O)(O)OP(=O)(O)OP(=O)(O)O)[C@@H](O)[C@H]1O` [ATP] as the molecule, how does the intracellular calcium levels (CLC organoids; CLC organoids loaded with Fluo-4) read?
Answer: increasing intracellular calcium levels; also recorded: an increase in intracellular calcium levels

Question: What about the “responsiveness (responding cells over total cells loaded with Fluo-4 AM)” value (CLC organoids; CLCs) of the same molecule?
Answer: 95%

Question: What about the “responsiveness of hESC-Chol” value (hESC-Chol) of the same molecule?
Answer: 70%
